Measured values reported in US9556115B2, “Sulfonamides for the prevention of diabetes” (Dompé S.P.A., priority 2009, dated 2017).

Tested on: MLD-STZ-induced diabetes in male C57BL/6J mice
Assay: Diabetes induction after multiple low dose (MLD)-streptozotocin (STZ) injections
Assay type: in vivo, mouse
Settings: for glycemic levels after development of diabetes vs control mice / time to develop the disease compared to controls: mice injected with STZ, summary statement
Description: Injection of susceptible mice strains with multiple low doses of (STZ) provokes a condition with clinical and histoimmunological features similar to human Type 1 diabetes mellitus (DM). It has been established that five daily doses of 40 mg/kg/day of STZ are required for delayed onset, sustained and progressive hyperglycemia and insulitis in male C57BL/6 mice.
This model was previously used to study the role of proinflammatory cytokines in the development of Type 1 diabetes. 12 male C57BL/6J mice received MLD-STZ treatment. STZ was injected i.p. at a dose of 40 mg/kg/day, for 5 consecutive days. Glucose concentrations in venous blood was measured every day starting from the first day of treatment. Mice with glycemia over 250 mg/dl on three consecutive tests were considered diabetic, with the first detection of hyperglycemia taken as the date of diabetes onset. The mice were monitored for up to 60 days post first STZ injection. Reparixin was administered by s.c. continuous infusion starting from day −1 up to day 7 after first STZ injection at a dose of 8 mg/h/kg.
Male C57BL/6J mice were injected i.p. with (ML)-streptozotocin (STZ) at a dose of 40 mg/kg/day, for 5 consecutive days. Glucose concentrations in venous blood were measured every day starting from the first day of treatment (day 0). Mice with glycaemia over 250 mg/dl on three consecutive tests were considered diabetic, with the first detection of hyperglycemia taken as the date of diabetes onset. The mice were followed for up to 60 days post first STZ injection. Meraxin was administered per os at a dose of 15 mg/kg for 7 or 14 days, starting from day −1 of first STZ injection.
In a second set of experiments, the treatment with Meraxin for 14 days was started +5 (n=4) days after the first STZ injection to mimic the clinical setting of diabetes onset.

| Structure (SMILES) | diabetes onset (Meraxin for 14 days started day +5 after first STZ injection (up to day 19), n=4) | glycaemic levels vs vehicle-treated mice (Meraxin for 14 days started day +5 after first STZ injection, whole 2-month observation period) | median diabetes-free time (Meraxin per os 15 mg/kg for 7 days starting from day -1, n=8, p=0.67 vs ctrl) | median diabetes-free time (Meraxin per os 15 mg/kg for 14 days starting from day -1, n=8, p=0.016 vs ctrl) | glycemic levels after development of diabetes vs control mice | time to develop the disease compared to controls | glycaemia levels after diabetes development vs vehicle-treated group (Reparixin s.c. continuous infusion 8 mg/h/kg day -1 to day 7, whole two-month observation period) | median diabetes free time (Reparixin s.c. continuous infusion 8 mg/h/kg from day -1 up to day 7 after first STZ injection, n=8, p=0.026 vs ctrl) |
| --- | --- | --- | --- | --- | --- | --- | --- | --- |
| C[C@@H](C(=O)NS(C)(=O)=O)c1ccc(OS(=O)(=O)C(F)(F)F)cc1 [Meraxin, R(-)-2-[(4′-trifluoromethanesulfonyloxy)phenyl]propionyl-methanesulfonamide] | clearly prevented diabetes onset | constantly and significantly lower | 13+2.8 days | 29+16 | significantly lower | more than double the time | – | – |
| CC(C)Cc1ccc([C@@H](C)C(=O)NS(C)(=O)=O)cc1 [Reparixin, R(-)-2-[(4-isobutylphenyl)propionyl]-methanesulfonamide] | – | – | – | – | significantly lower | more than double the time | constantly and significantly lower | 27 ± 15 days |
